Patent publication US7244744B2, “Piperidines” (Icagen, Inc., priority 2001, dated 2007)

Molecular target: T1, PN3 (Homo sapiens, UniProt Q9Y5Y9)
T1 construct: expressed in transfected cells
Assay: 14C Guanidinium Ion Influx Binding Assay (flux assay)
Type: cell-based
Conditions: activity towards PN3, PN3 stably expressed in a host cell line, deltamethrine 10 μM
Protocol: 1.1 ^14C Guanidinium Ion Influx Binding Assay
PN3 stably expressed in a host cell line were maintained in DMEM with 5% fetal bovine serum and 300 μg/ml G-418. The cells were subcultured and grown to confluence in 96-well plates 24-48 h before each experiment. After the growth medium was removed, the cells were washed with warm buffer (25 mM Hepes-Tris, 135 mM choline chloride, 5.4 mM potassium chloride, 0.98 mM magnesium sulfate, 5.5 mM glucose, and 1 mg/ml BSA, pH 7.4) and incubated in buffer on a 36° C. slide wanner for approximately 10 minutes. Various concentrations of the test compounds or standard sodium channel blockers (10 μM) and then deltamethrine (10 μM) were added to each well. After the cells were exposed to deltamethrine for 5 minutes, 5 μM of ^14C-guanidinium was added, incubated with the radioligand (30-60 min), washed with ice-cold buffer, and dissolved in 0.1N sodium hydroxide. The radioactivity and the protein concentration of each cell lysate were determined by liquid scintillation counting and the protein assay using Pierce BCA reagent.

T1 sequence (Q9Y5Y9 whole entry, species assumed): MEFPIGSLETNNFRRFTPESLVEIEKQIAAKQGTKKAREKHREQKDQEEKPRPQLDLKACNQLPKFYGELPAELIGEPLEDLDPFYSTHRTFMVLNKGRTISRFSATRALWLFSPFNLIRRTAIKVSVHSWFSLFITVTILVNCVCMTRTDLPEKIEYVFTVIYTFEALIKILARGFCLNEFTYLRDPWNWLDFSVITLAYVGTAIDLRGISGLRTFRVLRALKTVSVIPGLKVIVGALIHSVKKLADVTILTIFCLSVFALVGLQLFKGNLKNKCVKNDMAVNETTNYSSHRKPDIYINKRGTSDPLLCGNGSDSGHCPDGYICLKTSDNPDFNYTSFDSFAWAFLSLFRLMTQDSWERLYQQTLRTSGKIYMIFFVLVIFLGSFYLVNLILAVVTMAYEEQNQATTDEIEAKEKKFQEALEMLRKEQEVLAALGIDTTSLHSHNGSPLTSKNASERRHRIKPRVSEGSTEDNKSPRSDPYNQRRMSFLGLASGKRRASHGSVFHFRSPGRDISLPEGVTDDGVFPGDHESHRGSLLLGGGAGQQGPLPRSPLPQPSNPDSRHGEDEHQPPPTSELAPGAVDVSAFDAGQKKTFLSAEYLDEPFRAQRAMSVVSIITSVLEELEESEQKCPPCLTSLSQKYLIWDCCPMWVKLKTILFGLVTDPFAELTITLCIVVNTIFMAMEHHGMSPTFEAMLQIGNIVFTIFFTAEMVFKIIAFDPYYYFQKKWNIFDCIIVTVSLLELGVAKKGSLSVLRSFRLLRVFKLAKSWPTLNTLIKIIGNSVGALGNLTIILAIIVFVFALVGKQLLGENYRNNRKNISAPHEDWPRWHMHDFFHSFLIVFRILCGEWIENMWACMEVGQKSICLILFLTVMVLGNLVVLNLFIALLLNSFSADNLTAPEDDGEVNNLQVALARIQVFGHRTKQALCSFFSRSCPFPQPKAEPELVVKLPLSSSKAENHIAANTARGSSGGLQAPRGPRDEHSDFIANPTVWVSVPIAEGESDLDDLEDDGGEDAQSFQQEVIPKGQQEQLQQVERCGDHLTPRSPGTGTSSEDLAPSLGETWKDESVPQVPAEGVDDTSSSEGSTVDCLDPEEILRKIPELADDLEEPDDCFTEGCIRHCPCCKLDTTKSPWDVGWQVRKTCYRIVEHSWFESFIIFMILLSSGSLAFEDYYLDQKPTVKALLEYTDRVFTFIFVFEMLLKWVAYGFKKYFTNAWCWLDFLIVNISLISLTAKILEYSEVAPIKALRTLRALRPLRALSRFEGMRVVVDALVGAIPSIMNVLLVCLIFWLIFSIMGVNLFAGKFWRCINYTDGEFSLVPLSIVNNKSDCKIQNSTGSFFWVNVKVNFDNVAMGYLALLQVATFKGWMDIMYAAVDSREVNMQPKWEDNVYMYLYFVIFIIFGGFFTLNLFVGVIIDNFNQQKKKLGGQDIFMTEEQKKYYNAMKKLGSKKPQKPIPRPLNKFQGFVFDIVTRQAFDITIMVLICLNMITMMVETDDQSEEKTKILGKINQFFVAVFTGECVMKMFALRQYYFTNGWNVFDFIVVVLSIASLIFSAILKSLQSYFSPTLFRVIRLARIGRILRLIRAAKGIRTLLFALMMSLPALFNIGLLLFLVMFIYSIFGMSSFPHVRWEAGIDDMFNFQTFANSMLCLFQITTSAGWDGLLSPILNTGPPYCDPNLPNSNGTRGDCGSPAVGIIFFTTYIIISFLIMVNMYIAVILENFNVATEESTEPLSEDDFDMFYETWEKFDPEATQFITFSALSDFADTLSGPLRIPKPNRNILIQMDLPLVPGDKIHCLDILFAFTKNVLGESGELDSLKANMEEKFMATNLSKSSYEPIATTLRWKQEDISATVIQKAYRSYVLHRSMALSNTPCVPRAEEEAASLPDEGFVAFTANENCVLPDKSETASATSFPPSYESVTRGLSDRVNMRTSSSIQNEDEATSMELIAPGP

| IC50 | Structure (SMILES) |
| --- | --- |
| 4.1 to 10 µM | CCCCc1ccc(C(=O)N2CCC(n3c(NCc4ccccn4)nc4ccccc43)CC2)cc1 [Compound 185, (4-Butyl-phenyl)-(4-{2-[(pyridin-2-ylmethyl)-amino]-benzoimidazol-1-yl}-piperidin-1-yl)-methanone] |
| 0.1 to 4 µM | CCCCc1ccc(C(=O)N2CCC(n3c(=O)[nH]c4cc(F)ccc43)CC2)cc1 [Compound 160, 1-[1-(4-Butyl-benzoyl)-piperidin-4-yl]-5-fluoro-1,3-dihydro-benzoimidazol-2-one] |
| 0.1 to 4 µM | CCCCc1ccc(C(=O)N2CCC(n3c(=O)[nH]c4ccccc43)CC2)cc1 [Compound 34, 1-[1-(4-Butyl-benzoyl)-piperidin-4-yl]-1,3-dihydro-benzoimidazol-2-one] |
| 0.1 to 4 µM | CCCCc1ccc(C(=O)N2CCC(n3c(=O)n(Cc4ccncc4)c4ccccc43)CC2)cc1 [Compound 198, 1-[1-(4-Butyl-benzoyl)-piperidin-4-yl]-3-pyridin-4-ylmethyl-1,3-dihydro-benzoimidazol-2-one] |
| 0.1 to 4 µM | CCCCc1ccc(C(=O)N2CC=C(n3c(=O)[nH]c4ccccc43)CC2)cc1 [Compound 181, 1-[1-(4-Butyl-benzoyl)-1,2,3,6-tetrahydro-pyridin-4-yl]-1,3-dihydro-benzoimidazol-2-one] |
| 4.1 to 10 µM | O=c1[nH]c2ccccc2n1C1CCN(S(=O)(=O)c2ccc3ccccc3c2)CC1 [Compound 304, 1-[1-(Naphthalene-2-sulfonyl)-piperidin-4-yl]-1,3-dihydro-benzoimidazol-2-one] |
| 0.1 to 4 µM | CCCCCCNc1nc2ccccc2n1C1CCN(C(=O)c2ccc(CCCC)cc2)CC1 [Compound 188, (4-Butyl-phenyl)-[4-(2-hexylamino-benzoimidazol-1-yl)-piperidin-1-yl]-methanone] |
| 0.1 to 4 µM | CCCCc1ccc(C(=O)N2CC=C(n3c(=O)n(C)c4ccccc43)CC2)cc1 [Compound 206, 1-[1-(4-Butyl-benzoyl)-1,2,3,6-tetrahydro-pyridin-4-yl]-3-methyl-1,3-dihydro-benzoimidazol-2-one] |
| 0.1 to 4 µM | CCCCc1ccc(C(=O)N2CC=C(n3c(=O)n(Cc4ccccc4)c4ccccc43)CC2)cc1 [Compound 208, 1-Benzyl-3-[1-(4-butyl-benzoyl)-1,2,3,6-tetrahydro-pyridin-4-yl]-1,3-dihydro-benzoimidazol-2-one] |
| 4.1 to 10 µM | CCCCc1ccc(C(=O)N2CCC(n3c(C)nc4ccccc43)CC2)cc1 [Compound 203, (4-Butyl-phenyl)-[4-(2-methyl-benzoimidazol-1-yl)-piperidin-1-yl]-methanone] |
| 0.1 to 4 µM | CCCCc1ccc(C(=O)N2CCC(n3c(NCc4ccccc4)nc4ccccc43)CC2)cc1 [Compound 300, [4-(2-Benzylamino-benzoimidazol-1-yl)-piperidin-1-yl]-(4-butyl-phenyl)-methanone] |
| 0.1 to 4 µM | CCCCc1ccc(C(=O)N2CCC(n3c(=O)[nH]c4cccnc43)CC2)cc1 [Compound 200, 3-[1-(4-Butyl-benzoyl)-piperidin-4-yl]-1,3-dihydro-imidazo[4,5-b]pyridin-2-one] |
| 0.1 to 4 µM | CCCCc1ccc(C(=O)N2CCC(n3c(=O)n(C)c4ccccc43)CC2)cc1 [Compound 150, 1-[1-(4-Butyl-benzoyl)-piperidin-4-yl]-3-methyl-1,3-dihydro-benzoimidazol-2-one] |
